Measured values from ChEMBL document CHEMBL4342469, “Substituent Position of Iminocyclitols Determines the Potency and Selectivity for Gut Microbial Xenobiotic-Reactivating Enzymes” (J Med Chem, 2020).
pKi: −log10 of the molar value. The source made the active and inactive calls. The rule behind the calls is not given here.

Columns and labels:
[1] = Inhibition of Ruminococcus gnavus GUS pre-incubated for 5 to 30 mins before 4-methylumbelliferone beta-D-glucuronide substrate addition at pH […]; design: species or system Mediterraneibacter gnavus
Beta-glucuronidase [2] = biological target: T1, Beta-glucuronidase (Escherichia coli (strain K12), UniProt P05804); test: Inhibition of Escherichia coli GUS pre-incubated for 5 to 30 mins before 4-methylumbelliferone beta-D-glucuronide substrate addition at pH 5.5
T1 sequence (P05804 whole entry): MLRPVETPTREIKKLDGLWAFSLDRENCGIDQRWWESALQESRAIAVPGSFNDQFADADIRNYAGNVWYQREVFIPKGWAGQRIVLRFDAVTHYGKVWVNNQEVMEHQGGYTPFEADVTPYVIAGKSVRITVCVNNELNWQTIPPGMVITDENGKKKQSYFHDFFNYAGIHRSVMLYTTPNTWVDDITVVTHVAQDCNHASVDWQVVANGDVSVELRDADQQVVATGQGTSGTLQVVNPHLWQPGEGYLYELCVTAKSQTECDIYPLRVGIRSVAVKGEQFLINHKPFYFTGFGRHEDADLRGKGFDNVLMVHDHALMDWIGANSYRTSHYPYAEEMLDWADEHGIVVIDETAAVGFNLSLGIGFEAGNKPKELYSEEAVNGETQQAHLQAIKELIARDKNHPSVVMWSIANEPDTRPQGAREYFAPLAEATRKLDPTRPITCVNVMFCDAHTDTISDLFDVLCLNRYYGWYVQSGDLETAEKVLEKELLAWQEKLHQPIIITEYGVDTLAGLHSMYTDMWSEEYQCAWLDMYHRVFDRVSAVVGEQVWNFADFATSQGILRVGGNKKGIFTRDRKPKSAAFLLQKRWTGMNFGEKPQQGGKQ

Beta-glucuronidase [3] = biological target: T2, Beta-glucuronidase (Bos taurus, UniProt A3KMY8); test: Inhibition of bovine GUS pre-incubated for 5 to 30 mins before 4-methylumbelliferone beta-D-glucuronide substrate addition at pH 4.5
T2 sequence (A3KMY8 whole entry): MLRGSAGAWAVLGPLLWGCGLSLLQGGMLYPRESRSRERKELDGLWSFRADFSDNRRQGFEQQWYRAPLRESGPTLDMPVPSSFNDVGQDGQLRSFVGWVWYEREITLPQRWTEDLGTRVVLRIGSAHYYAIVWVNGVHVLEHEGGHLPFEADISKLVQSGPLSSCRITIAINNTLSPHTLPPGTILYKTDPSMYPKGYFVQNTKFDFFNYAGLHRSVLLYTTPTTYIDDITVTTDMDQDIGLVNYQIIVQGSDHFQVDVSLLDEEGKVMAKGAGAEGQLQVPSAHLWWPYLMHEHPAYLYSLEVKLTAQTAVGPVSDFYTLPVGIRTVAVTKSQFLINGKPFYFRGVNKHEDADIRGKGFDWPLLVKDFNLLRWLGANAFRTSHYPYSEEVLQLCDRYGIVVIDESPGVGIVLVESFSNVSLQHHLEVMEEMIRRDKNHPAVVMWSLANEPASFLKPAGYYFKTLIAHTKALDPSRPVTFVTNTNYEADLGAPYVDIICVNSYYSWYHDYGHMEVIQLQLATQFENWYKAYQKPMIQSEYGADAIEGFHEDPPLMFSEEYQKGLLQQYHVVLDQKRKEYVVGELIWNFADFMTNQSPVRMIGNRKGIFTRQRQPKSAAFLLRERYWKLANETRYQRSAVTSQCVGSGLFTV

[4] = Inhibition of Bacteroides fragilis GUS pre-incubated for 5 to 30 mins before 4-methylumbelliferone beta-D-glucuronide substrate addition at pH 5.5
[5] = Inhibition of Clostridium perfringens GUS pre-incubated for 5 to 30 mins before 4-methylumbelliferone beta-D-glucuronide substrate addition at pH 5.5
Beta-glucuronidase [6] = biological target: T1, Beta-glucuronidase; test: Inhibition of Escherichia coli GUS pre-incubated for 5 to 30 mins before 4-methylumbelliferone beta-D-glucuronide substrate addition at pH 6.7
Beta-glucuronidase [7] = biological target: T2, Beta-glucuronidase; test: Inhibition of bovine GUS pre-incubated for 5 to 30 mins before 4-methylumbelliferone beta-D-glucuronide substrate addition at pH 6.7
[8] = Inhibition of Ruminococcus gnavus GUS pre-incubated for 5 to 30 mins before 4-methylumbelliferone beta-D-glucuronide substrate addition at pH 6.7; design: species or system Mediterraneibacter gnavus
[9] = Inhibition of Bacteroides fragilis GUS pre-incubated for 5 to 30 mins before 4-methylumbelliferone beta-D-glucuronide substrate addition at pH 6.7
[10] = Inhibition of Clostridium perfringens GUS pre-incubated for 5 to 30 mins before 4-methylumbelliferone beta-D-glucuronide substrate addition at pH 6.7
[11] = (§1) Selectivity index, ratio of Ki for inhibition of Bacteroides fragilis GUS pre-incubated for 5 to 30 mins before 4-methylumbelliferone beta-D-glucuronide substrate addition at pH 5.5 to Ki for inhibition of Clostridium perfringens GUS pre-incubated for 5 to 30 mins before 4-methylumbelliferone beta-D-glucuronide substrate addition at pH 5.5
[12] = as §1, with “Ruminococcus gnavus” for “Bacteroides fragilis”, “Escherichia coli” for “Clostridium perfringens”
[13] = test system: Mediterraneibacter gnavus; test: Inhibition of Ruminococcus gnavus GUS pre-incubated for 5 to 30 mins before 4-methylumbelliferone beta-D-glucuronide substrate addition up to pH 6.9
Bacteroides fragilis [14] = test: Inhibition of Bacteroides fragilis GUS pre-incubated for 5 to 30 mins before 4-methylumbelliferone beta-D-glucuronide substrate addition at pH 3.6 to 6.9
Bacteroides fragilis [15] = test: Inhibition of Bacteroides fragilis GUS pre-incubated for 5 to 30 mins before 4-methylumbelliferone beta-D-glucuronide substrate addition at pH 6.5 to 7.9
[16] = biological target: Beta-glucuronidase (Escherichia coli (strain K12)) (UniProt P05804); test: Inhibition of Escherichia coli GUS pre-incubated for 5 to 30 mins before 4-methylumbelliferone beta-D-glucuronide substrate addition at pH 3.6 to 6.9
Sequence of Beta-glucuronidase (Escherichia coli (strain K12)) (P05804 whole entry, looked up): as the sequence (P05804 whole entry) above

[17] = biological target: Beta-glucuronidase (Escherichia coli (strain K12)) (UniProt P05804); test: Inhibition of Escherichia coli GUS pre-incubated for 5 to 30 mins before 4-methylumbelliferone beta-D-glucuronide substrate addition at pH 6.5 to 7.9

| SMILES | pKi [1] | pKi (Beta-glucuronidase [2]) | pKi (Beta-glucuronidase [3]) | pKi [4] | pKi [5] | pKi (Beta-glucuronidase [6]) | pKi (Beta-glucuronidase [7]) | pKi [8] | pKi [9] | pKi [10] | Ratio Ki [11] | Ratio Ki [12] | inhibition [13] | inhibition (Bacteroides fragilis [14]) | inhibition (Bacteroides fragilis [15]) | inhibition [16] | inhibition [17] |
| --- | --- | --- | --- | --- | --- | --- | --- | --- | --- | --- | --- | --- | --- | --- | --- | --- | --- |
| O=C(O)[C@H]1OC(=O)[C@H](O)[C@@H](O)[C@@H]1O | 4.39 | 4.80 | 5.31 | 6.16 | 5.35 |  |  |  |  |  |  |  |  |  |  |  |  |
| O=C(O)[C@H]1NC[C@H](O)[C@@H](O)[C@@H]1O | 4.68 | 4.76 | 4.67 | 5.62 | 4.91 |  |  |  |  |  |  |  |  |  |  |  |  |
| CCC[C@@H]1NC[C@@H](O)[C@H](O)[C@H]1C(=O)O | 4.02 | 6.74 | 4.49 | 5.13 | 6.37 | 7.13 | 5.23 | 4.29 | 5.44 | 6.75 |  |  |  |  |  |  |  |
| CCCN1C[C@@H](O)[C@H](O)[C@@H](C(=O)O)C1 | 4.75 | 4.23 | 3.73 | 4.41 | 4.43 | 4.38 | 4.21 | 5.26 | 4.81 | 4.29 | 190 | 700 |  |  |  |  |  |
| O=C(O)[C@H]1CNC[C@@H](O)[C@@H]1O | 7.30 | 7.47 | 7.32 |  | 7.96 | 7.92 | 7.91 | 8.41 | 8.44 | 7.79 |  |  | Active | Active | Active | Active | Active |
| O=C(O)[C@H]1NC(=O)[C@H](O)[C@@H](O)[C@@H]1O | 6.55 | 6.63 | 6.88 | 7.16 | 7.00 |  |  |  |  |  |  |  |  |  |  |  |  |
